Data on two compounds can be found in patent US10701876B2, “Production of plants using somatic embryogenesis” (MARS, INCORPORATED, priority 2013, dated 2020).

The subject of the experiment is Theobroma cacao L. CCN-10 clones, primary somatic embryo epicotyl/cotyledon explants. Put plainly: Direct secondary somatic embryogenesis from primary somatic embryo explants (hormone balance and stressor test). The experiment is classed as cell-based. As for the experimental part:
For the production of secondary embryos, epicotyls are taken from primary somatic embryos with size 1 cm and 40 mg of weight and they were cut in 10-15 pieces and placed into flask with 25 ml of liquid medium for embryogenic induction (Table 5) with some modifications in the experimental design (Table 7) per 5 weeks (step c). The culture is exposed to a light:dark 16:8 photoperiod, at a temperature of 27±2° C. and photosynthetic active radiation (PAR) or photosynthetic photon flux density (PPFD) of 50-190 μmol/m^2 per second. After this period, the somatic embryos in globular stage are transferred into the Petri dish in semi-solid developing media (Table 6) with some modifications (Table 8), with a 21-day culture period in light conditions until the embryos express and develop to the heart or early torpedo stage. Afterward, the cultures were transferred into the Petri dish in the same medium, but without gibberellic acid and with the same culture conditions but in the dark with transferences every 14 days for embryo's maturation. A variety of media were tested to assess the concentrations of plant hormones and stressors to be used in direct secondary somatic embryogenesis, as set forth in the following tables: [table] [table] Cotyledon explants were collected 40 days after induction and were used for study. Samples were fixed with FAA [10% formalin, 5% acetic acid, 50% ethanol (v/v)] per 8 days. The sample must be previously cut into approximately 0.5 to 1.0 mm. Do three (3) washes of 5 minutes each with distilled water or buffer to remove the fixative. […] the material in increasing concentrations of ethanol for at least 1 h of 70%, 85% and 95% at room temperature (incubation time varies with the kind of the material). Since the experiments were established, evaluations have been performed every 14 days, and some dependent variables like: number of calluses formed, number of normal embryos without callus formation, number of abnormal embryos without callus formation, number of pro-embryogenic masses, number of torpedo embryos, number of heart embryos, number of globular embryos, and overall observations. The Dino-Lite digital microscope premier, AM4113/AD4113 series was used for the observations. The experiment was a sequence of mediums where the first was induction medium (Table 7) followed by combination with develop medium (Table 8). The factorial analysis was 5×2, in view of the testing of 2 sucrose concentrations (40 and 80 g/l) and 5 gibberellic acid concentrations (0.0, 0.2, 0.4, 0.6 and 1.0 mg/l), using a completely randomized design.

The structures appear in SMILES notation.

Consider `c1ccc(CNc2ncnc3nc[nH]c23)cc1` [BAP, 6-benzylaminopurine], for which the “direct somatic embryos developed by embryonic regions of cotyledon explants (histological analysis)” value (induction medium with 1.0 mg/L BAP and 40 g/L sucrose, 40 days of culture (FIG. 5)) was “large numbers of direct somatic embryos in globular and heart stage”.

On to `C=C1C[C@]23C[C@@]1(O)CC[C@H]2[C@@]12C=C[C@H](O)[C@@](C)(C(=O)O1)[C@H]2[C@@H]3C(=O)O` [gibberellic acid], for which the “quantity of abnormal embryos” value (1 mg/l gibberellic acid and 40 g/l sucrose in development medium, compared with the other treatments (FIG. 4)) was “highest quantity of abnormal embryos”. Further, the “expression of direct somatic embryos (number of embryos produced)” value (different concentrations of gibberellic acid in combination with 40 g/L or 80 g/L sucrose (FIG. 4)) is reported as “influenced the expression of direct somatic embryos”. The normal embryos (sequence of media: induction 1.0 mg/l BAP + 40 g/l sucrose, light, 40 days, then 0.6 mg/l gibberellic acid + 40 g/l sucrose, light, 21 days, then same medium without gibberellic acid, darkness) was 83.3%.
